Calls of active or inactive are those of the source. No cut-off for these calls is given here.
Key:
[1] = molecular target: T1, Programmed cell death protein 1/Programmed cell death 1 ligand 1 (Homo sapiens, UniProt Q15116+Q9NZQ7); assay: Inhibition of PD-1/PD-L1 interaction (unknown origin) by HTRF assay; type: protein-complex assay
[2] = Observed clearance in rat at 1 mg/kg, iv; type: ADME, organism-based; details: in vivo
[3] = AUClast in rat at 3 mg/kg, po; type: ADME, organism-based; parameters: time 0 - last, route oral, dose 3 mg/kg; details: in vivo
[4] = AUClast in rat at 1 mg/kg, iv; type: ADME, organism-based; parameters: time 0 - last, route intravenous, dose 1 mg/kg; details: in vivo
[5] = Tmax in rat at 3 mg/kg, po; type: ADME, organism-based; details: in vivo
[6] = Observed volume of distribution at steady state in rat at 1 mg/kg, iv; type: ADME, organism-based; details: in vivo, read-out: Vdss
[7] = Cmax in rat at 3 mg/kg, po; type: ADME, organism-based; parameters: route oral, dose 3 mg/kg; details: in vivo
[8] = molecular target: T1, Programmed cell death protein 1/Programmed cell death 1 ligand 1; assay: Inhibition of PD-1/PD-L1 interaction in human PBMCs cocultured with H1299 cells assessed as increase in INFgamma expression at 0.1 uM incubated for 72 hrs in presence of alphaCD3/alphaCD28 by ELISA; type: cell-based; details: PBMC
[9] = Half life in rat at 1 mg/kg, iv; type: ADME, organism-based; details: in vivo
[10] = Microsomal stability in mouse assessed as clearance; type: ADME; details: microsomes
[11] = Microsomal stability in mouse assessed as half life; type: ADME; details: microsomes
[12] = molecular target: T2, Programmed cell death protein 1/Programmed cell death 1 ligand 1 (Mus musculus) (UniProt Q9EP73+Q02242); assay: Inhibition of PD1/PDL1 protein-protein interaction in mouse CD8-positive T cells cocultured with Hepa1-6 cells assessed as increase in CD107a expression in CD8+ T cells incubated for 5 hrs in presence of alphaCD3/alphaCD28 and IL-2 stimulation by flow cytometry analysis; type: cell-based; details: dose 0.75-3 µM
Hepa1-6 [13] = assay: Antitumor activity against […] Hepa1-6 cells xenografted in C57BL/6 mouse model assessed as increase in infiltration of GrzB+ CD8+ T-cells in tumor by flow cytometry analysis; type: functional, cell-based
Hepa1-6 [14] = assay: Antitumor activity against […] Hepa1-6 cells xenografted in C57BL/6 mouse model assessed as increase in infiltration of IFNgamma+ CD8+ T-cells in tumor by flow cytometry analysis; type: functional, cell-based
[15] = molecular target: T2, Programmed cell death protein 1/Programmed cell death 1 ligand 1 (Mus musculus); assay: Inhibition of PD1/PDL1 protein-protein interaction in mouse CD8-positive T cells cocultured with Hepa1-6 cells assessed as increase in ratio of GrzB+ CD8+ T cells at 0.75 to 3 uM incubated for 48 hrs in presence of alphaCD3/alphaCD28 and IL-2 stimulation by flow cytometry analysis; type: cell-based; details: dose 0.75-3 µM
[16] = molecular target: T2, Programmed cell death protein 1/Programmed cell death 1 ligand 1 (Mus musculus); assay: Inhibition of PD1/PDL1 protein-protein interaction in mouse CD8-positive T cells cocultured with Hepa1-6 cells assessed as increase in ratio of IFNgamma+ GrzB+ CD8+ T cells at 0.75 to 3 uM incubated for 48 hrs in presence of alphaCD3/alphaCD28 and IL-2 stimulation by flow cytometry analysis; type: cell-based; details: dose 0.75-3 µM
Hepa1-6 [17] = assay: Antitumor activity against […] Hepa1-6 cells xenografted in C57BL/6 mouse model assessed as increase in infiltration of IFNgamma+ GrzB+ CD8+ T-cells in tumor by flow cytometry analysis; type: functional, cell-based
[18] = Antitumor activity against […] Hepa1-6 cells xenografted in C57BL/6 mouse syngeneic model assessed as tumor growth inhibition at 1 mg/kg, IM administered every other day and measured three times per week; type: functional; details: Hepa1-6, im, read-out: TGI
[19] = molecular target: T1, Programmed cell death protein 1/Programmed cell death 1 ligand 1; assay: Inhibition of PD-1/PD-L1 interaction in human Jurkat T cells expressing PD-1 cocultured with CHO cells expressing PD-Ll/TCR assessed as activation of Jurkat cells by luciferase reporter gene assay; type: cell-based
[20] = molecular target: T2, Programmed cell death protein 1/Programmed cell death 1 ligand 1 (Mus musculus); assay: Inhibition of PD1/PDL1 protein-protein interaction in mouse CD8-positive T cells cocultured with Hepa1-6 cells assessed as increase in IFNgamma secretion incubated for 48 hrs in presence of alphaCD3/alphaCD28 and IL-2 stimulation by ELISA; type: cell-based; details: dose 0.75-3 µM
Hepa1-6 [21] = assay: Antitumor activity against […] Hepa1-6 cells xenografted in C57BL/6 […] mouse model assessed as tumor growth inhibition at 1 mg/kg, IM administered every other day and measured three times per week; type: functional, organism-based
[22] = molecular target: T2, Programmed cell death protein 1/Programmed cell death 1 ligand 1 (Mus musculus); assay: Inhibition of PD1/PDL1 protein-protein interaction in mouse CD8-positive T cells cocultured with Hepa1-6 cells assessed as increase in ratio of IFNgamma+ CD8+ T cells at 0.75 to 3 uM incubated for 48 hrs in presence of alphaCD3/alphaCD28 and IL-2 stimulation by flow cytometry analysis; type: cell-based; details: dose 0.75-3 µM

T1 sequence (Q15116 whole entry): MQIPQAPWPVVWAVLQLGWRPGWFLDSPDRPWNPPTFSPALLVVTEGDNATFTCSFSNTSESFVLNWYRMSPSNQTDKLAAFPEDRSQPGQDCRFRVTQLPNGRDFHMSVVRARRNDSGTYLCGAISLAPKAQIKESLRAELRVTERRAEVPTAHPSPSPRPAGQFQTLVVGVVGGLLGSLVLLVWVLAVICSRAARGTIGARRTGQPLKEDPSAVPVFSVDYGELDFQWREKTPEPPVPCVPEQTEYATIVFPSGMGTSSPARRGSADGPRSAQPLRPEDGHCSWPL
T1 sequence (Q9NZQ7 whole entry): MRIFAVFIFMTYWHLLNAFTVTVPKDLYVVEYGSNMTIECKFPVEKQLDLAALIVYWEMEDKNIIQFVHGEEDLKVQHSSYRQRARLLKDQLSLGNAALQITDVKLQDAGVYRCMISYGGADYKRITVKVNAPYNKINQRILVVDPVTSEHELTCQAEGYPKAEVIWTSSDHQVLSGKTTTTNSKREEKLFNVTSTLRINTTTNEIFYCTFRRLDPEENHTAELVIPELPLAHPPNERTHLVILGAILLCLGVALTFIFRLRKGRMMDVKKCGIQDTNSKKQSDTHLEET

Cc1cc(OC(F)(F)c2cccc(-c3ccc4c(c3)OCCO4)c2C)cc(OCc2cccc(C#N)c2)c1CNC(C)(CO)CO
IC50 [1]: 0.0163 µM

CON(C)C(=O)[C@@H]1CCCCN1Cc1cc(Cl)c(OC(F)(F)c2cccc(-c3ccc4c(c3)OCCO4)c2C)cc1OCc1ccnc(C#N)c1
IC50 [1]: > 1 µM

Cc1c(-c2ccc3c(c2)OCCO3)cccc1C(F)(F)Oc1cc(OCc2ccnc(C#N)c2)c(CN2CCCC[C@H]2C(=O)N[C@@H]2C(O)O[C@H](CO)[C@@H](O)[C@@H]2O)cc1Cl (some centres not stated)
IC50 [1]: 0.0288 µM

Cc1cc(OC(F)(F)c2cccc(-c3ccc4c(c3)OCCO4)c2C)cc(OCc2cccc(C#N)c2)c1CN[C@H](CO)C(=O)O
IC50 [1]: 0.0319 µM

Cc1cc(OC(F)(F)c2cccc(-c3ccc4c(c3)OCCO4)c2C)cc(OCc2cccc(C#N)c2)c1CNC(CO)(CO)CO
IC50 [1]: 0.0305 µM

Cc1c(-c2ccc3c(c2)OCCO3)cccc1C(F)(F)Oc1cc(OCc2ccnc(C#N)c2)c(CN2CCCC[C@H]2C(=O)O)cc1Cl
clearance [2]: 143 mL/min/kg
AUC(0-t) [3]: 0.701 ng·h/mL
AUC(0-t) [4]: 117 ng·h/mL
Tmax [5]: 2.83 h
Vd [6]: 5.31 L/kg
Cmax [7]: 0.698 ng/mL
inhibition [8]: Active
half-life [9]: 0.71 h
IC50 [1]: 0.00299 µM

Cc1c(-c2ccc3c(c2)OCCO3)cccc1C(F)(F)Oc1cc(OCc2cncc(C#N)c2)c(CNC(CO)(CO)CO)cc1Cl
clearance [2]: 89 mL/min/kg
AUC(0-t) [3]: 2.83 ng·h/mL
AUC(0-t) [4]: 188 ng·h/mL
Tmax [5]: 0.33 h
Vd [6]: 4.18 L/kg
Cmax [7]: 4.82 ng/mL
inhibition [8]: Active
half-life [9]: 1.32 h
IC50 [1]: 0.00568 µM

Cc1c(-c2ccc3c(c2)OCCO3)cccc1C(F)(F)Oc1cc(OCc2cccc(C#N)c2)c(CNC(C)(CO)CO)cc1Cl
IC50 [1]: 0.00593 µM

Cc1cc(OC(F)(F)c2cccc(-c3ccc4c(c3)OCCO4)c2C)cc(OCc2cccc(C#N)c2)c1CN[C@@H](C(=O)O)[C@H](C)O
IC50 [1]: 0.0547 µM

Cc1c(-c2ccc3c(c2)OCCO3)cccc1C(F)(F)Oc1cc(OCc2ccnc(C#N)c2)c(CN[C@@H](CO)[C@@H](O)[C@@H](O)[C@H](O)CO)cc1Cl
clearance [2]: 131 mL/min/kg
AUC(0-t) [4]: 141 ng·h/mL
Vd [6]: 18 L/kg
inhibition [8]: Active
half-life [9]: 3.14 h
IC50 [1]: 0.0071 µM

Cc1c(-c2ccc3c(c2)OCCO3)cccc1C(F)(F)Oc1cc(OCc2cccc3nonc23)c(CNC(CO)(CO)CO)cc1Cl
IC50 [1]: 0.00705 µM

CC(=O)OCCOC(=O)[C@@H]1CCCCN1Cc1cc(Cl)c(OC(F)(F)c2cccc(-c3ccc4c(c3)OCCO4)c2C)cc1OCc1ccnc(C#N)c1
IC50 [1]: > 1 µM

Cc1c(-c2ccc3c(c2)OCCO3)cccc1C(F)(F)Oc1cc(OCc2ccnc(C#N)c2)c(CNC(CO)(CO)CO)cc1Cl
IC50 [1]: 0.00632 µM

CC(=O)OCOC(=O)[C@@H]1CCCCN1Cc1cc(Cl)c(OC(F)(F)c2cccc(-c3ccc4c(c3)OCCO4)c2C)cc1OCc1ccnc(C#N)c1
IC50 [1]: 0.0288 µM

Cc1c(-c2ccc3c(c2)OCCO3)cccc1C(F)(F)Oc1cc(OCc2ccnc(C#N)c2)c(CN2CCCC[C@H]2C(=O)OCC(F)(F)F)cc1Cl
IC50 [1]: > 1 µM

Cc1cc(OCc2cccc(-c3ccc4c(c3)OCCO4)c2C)cc(OCc2cccc(C#N)c2)c1CN[C@H](CO)C(=O)O
clearance [2]: 124 mL/min/kg
AUC(0-t) [4]: 142 ng·h/mL
Vd [6]: 1.33 L/kg
microsomal CLint [10]: 52.5 µL/min/mg
half-life [9]: 0.47 h
half-life [11]: 1.1 h
IC50 [1]: 0.0482 µM

Cc1c(-c2ccc3c(c2)OCCO3)cccc1C(F)(F)Oc1cc(OCc2ccnc(C#N)c2)c(CN[C@@H]2C(O)O[C@H](CO)[C@@H](O)[C@@H]2O)cc1Cl (some centres not stated)
clearance [2]: 40 mL/min/kg
AUC(0-t) [4]: 464 ng·h/mL
inhibition [12]: Dose-Dependent Effect
Activity (Hepa1-6 [13]): Active
Activity (Hepa1-6 [14]): Active
Vd [6]: 3.92 L/kg
inhibition [15]: Active
inhibition [16]: Active
Activity (Hepa1-6 [17]): Active
inhibition in vivo at 1 mg/kg [18]: 53.1%
IC50 [19]: 3.16 µM
inhibition [20]: Dose-Dependent Effect
Activity (Hepa1-6 [21]): Active
microsomal CLint [10]: 46.1 µL/min/mg
inhibition [22]: Active
inhibition [8]: Active
half-life [9]: 4.84 h
half-life [11]: 1.25 h
IC50 [1]: 0.0102 µM

Reference: ChEMBL document CHEMBL4840360, “Design, Synthesis, and Pharmacological Evaluation of Biaryl-Containing PD-1/PD-L1 Interaction Inhibitors Bearing a Unique Difluoromethyleneoxy Linkage” (J Med Chem, 2021)
